Where “and” joins values, the source holds several entries; their conditions need not be identical. Equal entries are not always repeated.
How the values were obtained:
Experiment in all cases: radiometric filter-binding kinase assay, Kinaseprofiler
[1] = molecular target: MAP3K9 (human) (UniProt P80192); conditions: ATP 45 µM
[2] = molecular target: WNK2 (human) (UniProt Q9Y3S1); conditions: ATP 200 µM
[3] = molecular target: PRKAA2 PRKAB1 PRKAG1 (human) (UniProt P54619+P54646+Q9Y478); conditions: ATP 45 µM
PRKAA2 PRKAB1 PRKAG1 (human), sequence (P54619 whole entry, looked up): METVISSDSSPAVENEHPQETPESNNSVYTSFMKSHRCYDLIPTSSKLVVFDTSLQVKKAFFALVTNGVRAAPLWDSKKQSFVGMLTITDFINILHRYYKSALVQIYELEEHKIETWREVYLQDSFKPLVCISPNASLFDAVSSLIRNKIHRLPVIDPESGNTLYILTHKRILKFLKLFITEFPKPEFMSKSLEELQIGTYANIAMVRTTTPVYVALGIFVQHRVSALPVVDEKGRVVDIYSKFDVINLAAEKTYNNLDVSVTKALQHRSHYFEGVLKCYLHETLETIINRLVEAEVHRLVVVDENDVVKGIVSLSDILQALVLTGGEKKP
PRKAA2 PRKAB1 PRKAG1 (human), sequence (P54646 whole entry, looked up): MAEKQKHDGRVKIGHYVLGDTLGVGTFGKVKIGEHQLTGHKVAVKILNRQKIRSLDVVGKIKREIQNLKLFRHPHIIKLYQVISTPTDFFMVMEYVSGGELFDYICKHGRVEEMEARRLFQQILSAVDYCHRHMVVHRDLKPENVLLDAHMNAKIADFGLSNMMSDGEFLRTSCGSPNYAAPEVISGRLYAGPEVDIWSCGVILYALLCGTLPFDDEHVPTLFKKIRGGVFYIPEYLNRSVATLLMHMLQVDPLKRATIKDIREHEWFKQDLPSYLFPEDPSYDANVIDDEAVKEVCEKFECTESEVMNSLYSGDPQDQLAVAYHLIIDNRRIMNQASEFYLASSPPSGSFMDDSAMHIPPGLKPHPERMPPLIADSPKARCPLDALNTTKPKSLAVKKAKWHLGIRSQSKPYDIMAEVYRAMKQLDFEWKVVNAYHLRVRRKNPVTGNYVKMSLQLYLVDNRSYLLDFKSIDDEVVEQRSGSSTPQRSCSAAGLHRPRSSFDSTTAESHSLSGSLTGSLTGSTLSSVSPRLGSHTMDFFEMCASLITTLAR
PRKAA2 PRKAB1 PRKAG1 (human), sequence (Q9Y478 whole entry, looked up): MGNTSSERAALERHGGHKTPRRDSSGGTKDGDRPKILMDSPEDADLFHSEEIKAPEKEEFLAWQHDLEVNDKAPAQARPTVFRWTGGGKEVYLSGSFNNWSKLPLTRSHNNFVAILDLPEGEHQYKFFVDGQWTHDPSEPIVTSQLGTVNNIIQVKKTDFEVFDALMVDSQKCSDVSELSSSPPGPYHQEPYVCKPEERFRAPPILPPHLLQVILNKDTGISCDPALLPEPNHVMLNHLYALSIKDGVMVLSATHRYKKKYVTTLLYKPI

[4] = molecular target: FES (human) (UniProt P07332); conditions: ATP 45 µM
[5] = system: SGK2 (human), Q9HBY8 [S416D]; conditions: ATP 15 µM
[6] = molecular target: PAK4 (human) (UniProt O96013); conditions: ATP 10 µM
[7] = molecular target: PDPK1 (human) (UniProt O15530); conditions: ATP 10 µM
[8] = molecular target: CAMK1D (human) (UniProt Q8IU85); conditions: ATP 15 µM
[9] = molecular target: SIK1 (human) (UniProt P57059); conditions: ATP 45 µM
[10] = molecular target: IGF1R (human) (UniProt P08069); conditions: compound 1.0 µM
[11] = molecular target: EPHB1 (human) (UniProt P54762); conditions: ATP 200 µM
[12] = system: TAOK3 (human), Q9H2K8 [N47S]; conditions: ATP 15 µM
[13] = molecular target: ZAP70 (human) (UniProt P43403); conditions: ATP 15 µM
[14] = molecular target: PIM2 (human) (UniProt Q9P1W9); conditions: ATP 15 µM
[15] = molecular target: MAPK13 (human) (UniProt O15264); conditions: ATP 15 µM
[16] = molecular target: FLT3 (human) (UniProt P36888); conditions: ATP 200 µM
[17] = molecular target: DYRK2 (human) (UniProt Q92630); conditions: ATP 15 µM
[18] = molecular target: LCK (human) (UniProt P06239); conditions: compound 1.0 µM; ATP 90 µM
LCK (human), sequence (P06239 whole entry, looked up): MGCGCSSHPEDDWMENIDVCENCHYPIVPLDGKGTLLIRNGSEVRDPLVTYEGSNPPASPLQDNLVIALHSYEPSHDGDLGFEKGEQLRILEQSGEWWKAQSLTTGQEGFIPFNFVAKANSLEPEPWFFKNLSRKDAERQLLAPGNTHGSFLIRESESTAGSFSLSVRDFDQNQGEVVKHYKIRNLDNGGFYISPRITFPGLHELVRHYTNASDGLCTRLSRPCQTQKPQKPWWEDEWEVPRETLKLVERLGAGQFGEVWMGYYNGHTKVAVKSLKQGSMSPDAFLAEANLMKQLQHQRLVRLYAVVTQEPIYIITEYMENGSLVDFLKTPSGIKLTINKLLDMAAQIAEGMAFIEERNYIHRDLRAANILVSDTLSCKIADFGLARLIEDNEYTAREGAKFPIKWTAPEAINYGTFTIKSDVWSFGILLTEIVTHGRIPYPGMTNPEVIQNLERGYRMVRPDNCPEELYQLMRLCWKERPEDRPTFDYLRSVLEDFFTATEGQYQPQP

[19] = molecular target: CAMK1 (human) (UniProt Q14012); conditions: ATP 200 µM
CAMK1 (human), sequence (Q14012 whole entry, looked up): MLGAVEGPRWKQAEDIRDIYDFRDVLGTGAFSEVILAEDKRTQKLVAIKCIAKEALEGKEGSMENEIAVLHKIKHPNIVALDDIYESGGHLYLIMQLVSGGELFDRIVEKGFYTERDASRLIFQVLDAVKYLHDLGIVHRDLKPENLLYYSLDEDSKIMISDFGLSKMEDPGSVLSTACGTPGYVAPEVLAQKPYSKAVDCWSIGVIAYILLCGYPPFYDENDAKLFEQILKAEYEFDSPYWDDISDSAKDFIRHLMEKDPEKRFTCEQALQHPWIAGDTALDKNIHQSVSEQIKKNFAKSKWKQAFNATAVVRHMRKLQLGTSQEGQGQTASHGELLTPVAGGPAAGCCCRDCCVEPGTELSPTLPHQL

[20] = molecular target: FER (human) (UniProt P16591); conditions: ATP 70 µM
[21] = molecular target: CSNK1G1 (human) (UniProt Q9HCP0); conditions: ATP 15 µM
[22] = molecular target: PIM3 (human) (UniProt Q86V86); conditions: ATP 155 µM
[23] = molecular target: LYN (human) (UniProt P07948); conditions: ATP 70 µM
LYN (human), sequence (P07948 whole entry, looked up): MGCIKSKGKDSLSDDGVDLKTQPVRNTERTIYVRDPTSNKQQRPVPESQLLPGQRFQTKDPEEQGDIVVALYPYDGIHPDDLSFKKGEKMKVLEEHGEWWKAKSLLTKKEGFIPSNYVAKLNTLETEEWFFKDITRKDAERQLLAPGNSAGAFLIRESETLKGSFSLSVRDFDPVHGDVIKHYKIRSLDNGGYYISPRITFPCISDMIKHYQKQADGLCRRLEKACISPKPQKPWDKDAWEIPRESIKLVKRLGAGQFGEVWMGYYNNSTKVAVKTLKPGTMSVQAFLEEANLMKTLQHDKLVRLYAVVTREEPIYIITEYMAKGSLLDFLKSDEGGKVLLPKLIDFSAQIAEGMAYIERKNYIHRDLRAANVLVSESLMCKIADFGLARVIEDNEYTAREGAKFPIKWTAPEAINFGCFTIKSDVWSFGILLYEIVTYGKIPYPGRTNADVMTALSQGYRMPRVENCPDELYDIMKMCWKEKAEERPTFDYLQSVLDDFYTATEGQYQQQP

[24] = molecular target: RPS6KA3 KD1 KD2 (human) (UniProt P51812); conditions: ATP 10 µM
RPS6KA3 KD1 KD2 (human), sequence (P51812 whole entry, looked up): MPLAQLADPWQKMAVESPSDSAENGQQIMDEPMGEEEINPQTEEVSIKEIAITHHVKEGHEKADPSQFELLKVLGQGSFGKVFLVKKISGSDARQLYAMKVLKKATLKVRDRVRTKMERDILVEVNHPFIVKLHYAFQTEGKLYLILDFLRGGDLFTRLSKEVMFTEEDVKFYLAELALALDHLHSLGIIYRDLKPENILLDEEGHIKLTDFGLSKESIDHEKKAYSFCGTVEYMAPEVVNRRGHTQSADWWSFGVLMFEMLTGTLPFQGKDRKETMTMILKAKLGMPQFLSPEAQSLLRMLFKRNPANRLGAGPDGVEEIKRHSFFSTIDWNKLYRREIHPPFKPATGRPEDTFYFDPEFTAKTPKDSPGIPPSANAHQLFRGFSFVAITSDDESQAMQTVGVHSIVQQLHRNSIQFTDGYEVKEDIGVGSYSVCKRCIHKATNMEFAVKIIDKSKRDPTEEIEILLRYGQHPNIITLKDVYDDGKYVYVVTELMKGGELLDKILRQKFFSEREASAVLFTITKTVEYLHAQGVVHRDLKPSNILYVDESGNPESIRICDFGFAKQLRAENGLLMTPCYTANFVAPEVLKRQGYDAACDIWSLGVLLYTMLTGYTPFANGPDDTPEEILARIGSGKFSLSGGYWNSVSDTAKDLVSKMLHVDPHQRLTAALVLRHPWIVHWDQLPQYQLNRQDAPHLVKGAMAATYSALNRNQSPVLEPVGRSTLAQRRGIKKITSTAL

[25] = molecular target: PAK7 (human) (UniProt Q9P286); conditions: ATP 15 µM
[26] = molecular target: EPHA1 (human) (UniProt P21709); conditions: ATP 45 µM
[27] = molecular target: PRKD2 (human) (UniProt Q9BZL6); conditions: ATP 155 µM

MAP3K9 (human), sequence (P80192 whole entry, looked up): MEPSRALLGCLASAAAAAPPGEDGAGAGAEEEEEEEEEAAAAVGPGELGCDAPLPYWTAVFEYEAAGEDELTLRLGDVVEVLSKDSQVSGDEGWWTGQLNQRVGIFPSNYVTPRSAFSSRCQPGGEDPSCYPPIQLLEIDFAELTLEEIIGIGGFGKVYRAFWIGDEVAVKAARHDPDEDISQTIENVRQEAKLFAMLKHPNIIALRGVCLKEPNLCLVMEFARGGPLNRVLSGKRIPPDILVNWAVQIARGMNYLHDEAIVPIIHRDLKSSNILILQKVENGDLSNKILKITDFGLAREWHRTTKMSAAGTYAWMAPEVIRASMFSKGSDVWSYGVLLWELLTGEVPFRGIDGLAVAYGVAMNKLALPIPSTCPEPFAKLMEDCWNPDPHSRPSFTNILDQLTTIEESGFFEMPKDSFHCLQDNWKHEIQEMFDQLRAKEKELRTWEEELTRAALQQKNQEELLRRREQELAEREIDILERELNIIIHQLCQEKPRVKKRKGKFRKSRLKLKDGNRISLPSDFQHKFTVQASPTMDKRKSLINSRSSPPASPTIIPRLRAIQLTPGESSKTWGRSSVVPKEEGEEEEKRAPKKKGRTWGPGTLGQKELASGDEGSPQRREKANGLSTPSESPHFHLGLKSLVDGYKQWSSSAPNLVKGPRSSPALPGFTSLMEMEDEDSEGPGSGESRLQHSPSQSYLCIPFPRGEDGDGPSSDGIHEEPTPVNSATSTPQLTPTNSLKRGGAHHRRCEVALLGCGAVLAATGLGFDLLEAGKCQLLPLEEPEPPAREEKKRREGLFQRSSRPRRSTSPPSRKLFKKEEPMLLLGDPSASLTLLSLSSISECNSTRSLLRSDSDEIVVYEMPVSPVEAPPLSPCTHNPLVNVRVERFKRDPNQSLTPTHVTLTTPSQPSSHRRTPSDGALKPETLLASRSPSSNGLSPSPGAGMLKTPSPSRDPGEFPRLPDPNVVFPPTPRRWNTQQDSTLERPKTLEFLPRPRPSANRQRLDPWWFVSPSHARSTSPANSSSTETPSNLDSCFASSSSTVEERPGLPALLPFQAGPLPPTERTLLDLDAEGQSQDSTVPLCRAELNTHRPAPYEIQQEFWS

Structure (SMILES): O=C1c2ccccc2-c2n[nH]c3cccc1c23
- residual activity ([1]; compound 1.0 µM): 13%
- residual activity ([1]; compound 10.0 µM): 4%
- residual activity ([2]; compound 1.0 µM): 79%
- residual activity ([2]; compound 10.0 µM): 77%
- residual activity ([3]; compound 1.0 µM): 69%
- residual activity ([3]; compound 10.0 µM): 28%
- residual activity ([4]; compound 1.0 µM): 34%
- residual activity ([4]; compound 10.0 µM): 6%
- residual activity ([5]; compound 1.0 µM): 71%
- residual activity ([5]; compound 10.0 µM): 33%
- residual activity ([6]; compound 1.0 µM): 88%
- residual activity ([6]; compound 10.0 µM): 45%
- residual activity ([7]; compound 1.0 µM): 72%
- residual activity ([7]; compound 10.0 µM): 19%
- residual activity ([8]; compound 1.0 µM): 70%
- residual activity ([8]; compound 10.0 µM): 38%
- residual activity ([9]; compound 1.0 µM): 96%
- residual activity ([9]; compound 10.0 µM): 48%
- residual activity ([10]; ATP 45 µM): 92%
- residual activity ([10]; ATP 200 µM): 91%
- residual activity ([11]; compound 1.0 µM): 91%
- residual activity ([11]; compound 10.0 µM): 29%
- residual activity ([12]; compound 1.0 µM): 69%
- residual activity ([12]; compound 10.0 µM): 27%
- residual activity ([13]; compound 1.0 µM): 94%
- residual activity ([13]; compound 10.0 µM): 98%
- residual activity ([14]; compound 1.0 µM): 58%
- residual activity ([14]; compound 10.0 µM): 21%
- residual activity ([15]; compound 1.0 µM): 96%
- residual activity ([15]; compound 10.0 µM): 73%
- residual activity ([16]; compound 1.0 µM): 6%
- residual activity ([16]; compound 10.0 µM): 1%
- residual activity ([17]; compound 1.0 µM): 4%
- residual activity ([17]; compound 10.0 µM): -5%
- residual activity [18]: 70% and 89%
- residual activity ([19]; compound 1.0 µM): 77%
- residual activity ([19]; compound 10.0 µM): 32%
- residual activity ([20]; compound 1.0 µM): 75%
- residual activity ([20]; compound 10.0 µM): 51%
- residual activity ([21]; compound 1.0 µM): 99%
- residual activity ([21]; compound 10.0 µM): 48%
- residual activity ([22]; compound 1.0 µM): 75%
- residual activity ([22]; compound 10.0 µM): 59%
- residual activity ([23]; compound 1.0 µM): 70%
- residual activity ([23]; compound 10.0 µM): 30%
- residual activity ([24]; compound 1.0 µM): 54%
- residual activity ([24]; compound 10.0 µM): 32%
- residual activity ([25]; compound 1.0 µM): 99%
- residual activity ([25]; compound 10.0 µM): 64%
- residual activity ([26]; compound 1.0 µM): 67%
- residual activity ([26]; compound 10.0 µM): 42%
- residual activity ([27]; compound 1.0 µM): 92%
- residual activity ([27]; compound 10.0 µM): 36%
